Some results are limits rather than exact numbers.

In general, IC50 refers to the concentration needed to halve the response being measured. Read a high IC50 as a need for much substance.

One test concerns the target USP25 (Homo sapiens (Human), UniProt Q9UHP3). The experiment in a line: Ubiquitin-Rhodamine 110 Assay for USP25 Activity. Type of test: biochemical. The essentials:
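USP25-His6 (75 pM) preincubated 30 min with compound (25 μM to 1.3 nM, 10-point 3-fold), then Ub-Rh110 added; 45 min at room temperature in pH 8.0 Tris buffer with BME, BGG, Triton X-100, stopped with 10 mM citric acid. Fluorescence 485/535 nm; % inhibition vs no-enzyme and DMSO controls, IC50 by 4-parameter logistic fit.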

A further test concerns the target USP28 (Homo sapiens (Human), UniProt Q96RU2). Kind of test: Ubiquitin-Rhodamine 110 Assay for USP28 Activity. It counts as biochemical. The essentials:
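Single-point screen at 10 μM, 90 min; follow-up dose-response (25 μM top, 3-fold) with 75 pM USP28 (1-1077)-TEV-6*His, 30 min compound preincubation, Ub-Rh110 substrate for 20 min at room temperature, citric acid stop. Buffer pH 8.0 Tris; fluorescence 485/535 nm; IC50 by 4-parameter logistic fit of % inhibition.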

Sequence of USP25 (Q9UHP3 whole entry): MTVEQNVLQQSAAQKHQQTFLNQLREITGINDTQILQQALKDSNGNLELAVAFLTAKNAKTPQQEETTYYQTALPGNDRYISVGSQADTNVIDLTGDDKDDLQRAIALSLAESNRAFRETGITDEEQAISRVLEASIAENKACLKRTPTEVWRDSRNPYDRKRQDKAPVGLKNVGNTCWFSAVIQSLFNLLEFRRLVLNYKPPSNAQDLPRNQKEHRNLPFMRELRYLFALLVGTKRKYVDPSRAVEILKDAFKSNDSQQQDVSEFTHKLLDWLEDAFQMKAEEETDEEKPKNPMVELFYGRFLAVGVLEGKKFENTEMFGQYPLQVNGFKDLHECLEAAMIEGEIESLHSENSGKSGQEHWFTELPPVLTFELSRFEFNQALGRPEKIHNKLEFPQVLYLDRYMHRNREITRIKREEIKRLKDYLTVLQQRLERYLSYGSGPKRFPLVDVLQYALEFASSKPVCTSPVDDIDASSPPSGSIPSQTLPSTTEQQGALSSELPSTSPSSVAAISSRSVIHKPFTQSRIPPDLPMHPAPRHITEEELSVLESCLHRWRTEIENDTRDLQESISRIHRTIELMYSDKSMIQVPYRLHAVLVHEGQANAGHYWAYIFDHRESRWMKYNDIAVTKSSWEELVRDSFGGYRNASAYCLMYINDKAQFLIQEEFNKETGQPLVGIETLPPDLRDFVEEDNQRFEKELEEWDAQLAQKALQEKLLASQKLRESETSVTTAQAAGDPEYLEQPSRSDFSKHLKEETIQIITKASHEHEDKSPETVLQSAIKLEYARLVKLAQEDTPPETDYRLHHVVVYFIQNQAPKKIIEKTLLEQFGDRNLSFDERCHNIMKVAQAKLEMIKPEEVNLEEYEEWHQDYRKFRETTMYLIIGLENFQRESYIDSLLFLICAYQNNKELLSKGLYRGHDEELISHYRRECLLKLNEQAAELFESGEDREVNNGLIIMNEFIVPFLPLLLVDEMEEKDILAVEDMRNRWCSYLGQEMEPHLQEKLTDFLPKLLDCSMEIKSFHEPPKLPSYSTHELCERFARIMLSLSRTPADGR
Sequence of USP28 (Q96RU2 whole entry): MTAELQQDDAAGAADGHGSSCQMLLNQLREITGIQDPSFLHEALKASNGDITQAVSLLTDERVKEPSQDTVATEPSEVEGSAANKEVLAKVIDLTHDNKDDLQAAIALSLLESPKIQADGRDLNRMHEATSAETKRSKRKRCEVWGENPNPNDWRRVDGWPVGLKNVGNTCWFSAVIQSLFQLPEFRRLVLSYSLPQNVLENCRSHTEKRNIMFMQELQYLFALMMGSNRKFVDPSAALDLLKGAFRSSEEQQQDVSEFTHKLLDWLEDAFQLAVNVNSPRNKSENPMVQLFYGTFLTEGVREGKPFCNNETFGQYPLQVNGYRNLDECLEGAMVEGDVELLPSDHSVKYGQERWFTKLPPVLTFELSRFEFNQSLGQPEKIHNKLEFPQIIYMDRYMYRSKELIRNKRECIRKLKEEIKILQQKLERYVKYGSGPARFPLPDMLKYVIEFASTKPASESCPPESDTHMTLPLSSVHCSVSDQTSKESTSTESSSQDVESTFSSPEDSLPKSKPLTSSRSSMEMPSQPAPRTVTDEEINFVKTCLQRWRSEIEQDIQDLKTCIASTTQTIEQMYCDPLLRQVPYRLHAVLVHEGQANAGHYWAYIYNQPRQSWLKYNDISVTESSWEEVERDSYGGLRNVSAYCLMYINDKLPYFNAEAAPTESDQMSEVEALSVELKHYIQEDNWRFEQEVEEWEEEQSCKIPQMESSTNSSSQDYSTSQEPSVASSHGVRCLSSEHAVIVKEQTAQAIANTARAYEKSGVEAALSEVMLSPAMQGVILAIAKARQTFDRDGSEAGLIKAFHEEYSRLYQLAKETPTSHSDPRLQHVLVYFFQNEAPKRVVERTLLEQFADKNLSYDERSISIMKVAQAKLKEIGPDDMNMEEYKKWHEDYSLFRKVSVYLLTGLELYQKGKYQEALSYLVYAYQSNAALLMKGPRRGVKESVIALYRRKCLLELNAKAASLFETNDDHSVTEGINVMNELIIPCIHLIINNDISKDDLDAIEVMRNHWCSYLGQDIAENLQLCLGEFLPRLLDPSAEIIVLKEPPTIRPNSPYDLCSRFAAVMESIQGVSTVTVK

In the case of `Cc1ccc2c(N)c(C(=O)NCCc3cc(F)c(N4C[C@H]5C[C@@H]4CN5)cc3F)sc2n1` [Compound I-53], the IC50 at USP25 and against USP28 was less than 200 nM in each case.

As for `Cc1ccc2c(N)c(C(=O)NCCc3ccc(N4CC5CCC(C4)N5)c(C#N)c3)sc2n1` [Compound I-54], the results for the IC50 on USP25 and against USP28 were 200 to 2000 nM and less than 200 nM, respectively.

For `Cc1cc(Cl)nc2sc(C(=O)NCCc3ccc(N4CCNCC4)cc3)c(N)c12` [Compound I-56], the IC50 against USP25 and against USP28 was 200 to 2000 nM throughout.

Regarding `CN1CCC(c2ccc(CCNC(=O)c3sc4nc(Cl)ccc4c3N)cc2)CC1` [Compound I-58], the half-maximal inhibitory concentration (IC50) against USP25 is 200 to 2000 nM; on USP28, less than 200 nM.

Turning to `CN1CCN(c2ccc(CCNC(=O)c3sc4nc(Cl)ccc4c3N)cc2)CC1` [Compound I-59], the IC50 at USP25 and at USP28 was 200 to 2000 nM throughout.

For the compound `Nc1c(C(=O)NCCc2ccc(C3CCNCC3)cc2)sc2nc(Cl)ccc12` [Compound I-60], the IC50 at USP25 and on USP28 was 200 to 2000 nM in each case.

`Cc1cc2c(N)c(C(=O)NCCc3ccc(N4CCNCC4)cc3)sc2nc1C` [Compound I-61]: the IC50 fell in the range of 2000 to 10000 nM against USP25 and 200 to 2000 nM on USP28.

On to `Cc1cc(C(F)F)nc2sc(C(=O)NCCc3ccc(N4CCNCC4)cc3)c(N)c12` [Compound I-62], for which the half-inhibitory concentration (IC50) at USP25 and on USP28 was less than 200 nM throughout.

On to `Cc1nc2sc(C(=O)NCCc3ccc(N4CCNCC4)cc3)c(N)c2cc1F` [Compound I-63], for which the IC50 at USP25 is 200 to 2000 nM; against USP28 it was less than 200 nM.

`Cc1ccc2c(N)c(C(=O)NCCc3ccc(N4C5CNCC4C5)cc3)sc2n1` [Compound I-64]: the IC50 on USP25 and against USP28 was less than 200 nM throughout.

`Cc1ccc2c(N)c(C(=O)NCCc3ccc(N4CC5CC(C4)N5)cc3)sc2n1` [Compound I-65]: the IC50 against USP25 and at USP28 was less than 200 nM throughout.

For the compound `COc1nc2sc(C(=O)NCCc3cc(F)c(N4CCNCC4)cc3F)c(N)c2cc1F` [Compound I-68], the 50% inhibitory concentration (IC50) against USP25 was in the range of 2000 to 10000 nM; at USP28 it was 200 to 2000 nM.

Take `Nc1c(C(=O)NCCc2cc(F)c(N3CC4CCC(C3)N4)cc2F)sc2ncc(F)cc12` [Compound I-69]: the 50% inhibitory concentration (IC50) is 200 to 2000 nM on USP25 and less than 200 nM against USP28.

For the compound `Cc1ccc2c(N)c(C(=O)NCCc3cc(F)c(NC4CNC4)cc3F)sc2n1` [Compound I-70], the IC50 against USP25 is 200 to 2000 nM; on USP28 it was less than 200 nM.

In the case of `Cc1nc2sc(C(=O)NCCc3ccc(N4CC5CCC(C4)N5)c(C#N)c3)c(N)c2cc1F` [Compound I-71], the IC50 on USP25 and against USP28 was 200 to 2000 nM throughout.

In the case of `Cc1nc2sc(C(=O)NCCc3cc(F)c(N4CC5CCC(C4)N5)cc3F)c(N)c2cc1F` [Compound I-72], the IC50 on USP25 is 200 to 2000 nM; against USP28, less than 200 nM.

Regarding `Cc1ccc2c(N)c(C(=O)NCCc3ccc(C4CCNCC4)cc3F)sc2n1` [Compound I-170], the IC50 on USP25 was 200 to 2000 nM; on USP28, less than 200 nM.

With `Cc1ccc2c(N)c(C(=O)NCCc3ccc(N4CC[C@@H](NC(C)C)C4)cc3)sc2n1` [Compound I-201], the IC50 at USP25 and against USP28 was 200 to 2000 nM each time.

On to `Cc1cc(C(F)(F)F)c2c(N)c(C(=O)NCCc3ccc(N4CCNCC4)cc3)sc2n1` [Compound I-204], for which the results for the IC50 on USP25 and against USP28 were less than 200 nM and 200 to 2000 nM, respectively.

For the compound `Cc1ccc2c(N)c(C(=O)NCCc3ccc(C4CCNCC4)c(Cl)c3)sc2n1` [Compound I-205], the IC50 against USP25 is 200 to 2000 nM; at USP28, less than 200 nM.

As to `CCc1nc2sc(C(=O)NCCc3ccc(N4CCNCC4)cc3)c(N)c2cc1F` [Compound I-206], the IC50 against USP25 and at USP28 was less than 200 nM in each case.

As for `Cc1ccc2c(N)c(C(=O)NCCc3cc(F)c(N4CCN[C@@H](C)C4)cc3F)sc2n1` [Compound I-210], the IC50 was 2000 to 10000 nM against USP25 and 200 to 2000 nM at USP28.

For `Cc1ccc2c(N)c(C(=O)NCCc3ccc(N4CCNCC4)cc3)sc2n1` [Example I-1, 3-Amino-6-methyl-N-(4-(piperazin-1-yl)phenethyl)thieno[2,3-b]pyridine-2-carboxamide], the IC50 against USP25 and against USP28 was 200 to 2000 nM each time.

`Cc1ccc2c(N)c(C(=O)NCCc3ccc(N4CCNCC4)c(F)c3)sc2n1` [Example I-10, 3-Amino-N-(3-fluoro-4-(piperazin-1-yl)phenethyl)-6-methylthieno[2,3-b]pyridine-2-carboxamide]: the IC50 at USP25 fell in the range of 200 to 2000 nM; against USP28 it was 2000 to 10000 nM.

`Cc1ccc2c(N)c(C(=O)NCCc3cc(F)c(N4CCNCC4)cc3F)sc2n1` [Example I-11, 3-Amino-N-(2,5-difluoro-4-(piperazin-1-yl)phenethyl)-6-methylthieno[2,3-b]pyridine-2-carboxamide]: the IC50 on USP25 and at USP28 was 200 to 2000 nM in each case.

For the compound `Cc1ccc2c(N)c(C(=O)NCCc3ccc(N4CCNCC4)c(OC(F)F)c3)sc2n1` [Example I-73, 3-Amino-N-(3-(difluoromethoxy)-4-(piperazin-1-yl)phenethyl)-6-methylthieno[2,3-b]pyridine-2-carboxamide], the IC50 at USP25 and at USP28 was 200 to 2000 nM throughout.

As for `Cc1ccc2c(N)c(C(=O)NCCc3ccc(N4CCN(C5CCC5)CC4)cc3)sc2n1` [Example I-75], the IC50 against USP25 and on USP28 was 200 to 2000 nM throughout.

For `Cc1ccc2c(N)c(C(=O)NCCc3ccc(N4CCNCC4)cc3Cl)sc2n1` [Example I-76], the IC50 against USP25 is 200 to 2000 nM; against USP28, less than 200 nM.

Consider `Cc1ccc2c(N)c(C(=O)NCCc3ccc(N4CCNCC4)c(Cl)c3)sc2n1` [Example I-77], for which the half-maximal inhibitory concentration (IC50) against USP25 and against USP28 was 200 to 2000 nM throughout.

Turning to `CCc1cc(CCNC(=O)c2sc3nc(C)ccc3c2N)ccc1N1CCNCC1` [Example I-78], the figures for the IC50 against USP25 and against USP28 were 200 to 2000 nM and less than 200 nM, respectively.

On to `CN[C@H]1CCN(c2ccc(CCNC(=O)c3sc4nc(C)ccc4c3N)cc2Cl)C1` [Example I-79], for which the 50% inhibitory concentration (IC50) on USP25 and at USP28 was 200 to 2000 nM in each case.

Take `Cc1ccc2c(N)c(C(=O)NCCc3ccc(N4CCNCC4)cc3C3CC3)sc2n1` [Example I-81]: the IC50 at USP25 and at USP28 was less than 200 nM throughout.

On to `Cc1ccc2c(N)c(C(=O)NCCc3ccc(N4CCNCC4)cc3-c3ccccc3)sc2n1` [Example I-82], for which the IC50 on USP25 and on USP28 was less than 200 nM in each case.

As to `CCOc1cc(CCNC(=O)c2sc3nc(C)ccc3c2N)ccc1N1CCNCC1` [Example I-83], the IC50 against USP25 and on USP28 was 200 to 2000 nM each time.

`Cc1ccc2c(N)c(C(=O)NCCc3ccc(N4CCNCC4)c(F)c3F)sc2n1` [Example I-84]: the IC50 on USP25 and against USP28 was 200 to 2000 nM in each case.

For `CN[C@@H]1CCN(c2ccc(CCNC(=O)c3sc4nc(C)ccc4c3N)cc2Cl)C1` [Example I-85], the IC50 on USP25 and on USP28 was 200 to 2000 nM throughout.

On to `Cc1ccc2c(N)c(C(=O)NCCc3ccc(N4CCN[C@H](CO)C4)cc3)sc2n1` [Example I-86], for which the IC50 on USP25 and at USP28 was 200 to 2000 nM throughout.

`Cc1ccc2c(N)c(C(=O)NCCc3ccc(N4CCN[C@@H](CO)C4)cc3)sc2n1` [Example I-87]: the IC50 is 200 to 2000 nM against USP25 and less than 200 nM against USP28.

Regarding `Cc1ccc2c(N)c(C(=O)NCCc3ccc(N4CC5CCC(C4)N5)c(F)c3)sc2n1` [Example I-88], the IC50 on USP25 is 200 to 2000 nM; on USP28, less than 200 nM.

As to `Cc1ccc2c(N)c(C(=O)NCCc3ccc(N4CCNCC4)cc3C)sc2n1` [Example I-89], the IC50 against USP25 was 200 to 2000 nM; on USP28, less than 200 nM.

Take `Cc1ccc2c(N)c(C(=O)NCCc3ccc4c(c3)CNCC4)sc2n1` [Example I-90]: the IC50 against USP25 and at USP28 was 200 to 2000 nM in each case.

`Cc1ccc2c(N)c(C(=O)N[C@H]3C[C@@H](c4ccc(N5CCNCC5)cc4)C3)sc2n1` [Example I-91, cis-3-Amino-6-methyl-N-(3-(4-(piperazin-1-yl)phenyl)cyclobutyl)thieno [2,3-b]pyridine-2-carboxamide]: the half-maximal inhibitory concentration (IC50) against USP25 and on USP28 was 200 to 2000 nM in each case.

In the case of `Cc1ccc2c(N)c(C(=O)N[C@H]3C[C@H](c4ccc(N5CCNCC5)cc4)C3)sc2n1` [Example I-92, trans-3-amino-6-methyl-N-(3-(4-(piperazin-1-yl)phenyl)cyclobutyl)thieno[2,3-b]pyridine-2-carboxamide], the IC50 at USP25 and at USP28 was 200 to 2000 nM each time.

As to `Cc1ccc2c(N)c(C(=O)NCCc3cc(F)c(N4C[C@@H]5CCN[C@@H]5C4)cc3F)sc2n1` [Example I-95], the figures for the IC50 against USP25 and at USP28 were 200 to 2000 nM and less than 200 nM, respectively.

Turning to `Cc1ccc2c(N)c(C(=O)NCCc3cc(F)c(N4C[C@H]5CCN[C@H]5C4)cc3F)sc2n1` [Example I-96], the IC50 against USP25 was 200 to 2000 nM; on USP28, less than 200 nM.

Regarding `Cc1nc2sc(C(=O)NC[C@@H](C)c3cc(F)c(N4CCNCC4)cc3F)c(N)c2cc1F` [Example I-99], the IC50 against USP25 and on USP28 was 2000 to 10000 nM each time.

As for `Cc1nc2sc(C(=O)NC[C@H](C)c3cc(F)c(N4CCNCC4)cc3F)c(N)c2cc1F` [Example I-100], the IC50 lay in the range of 2000 to 10000 nM at USP25 and 200 to 2000 nM on USP28.

On to `Nc1nc2sc(C(=O)NCCc3ccc(N4CCNCC4)cc3)c(N)c2cc1F` [Example I-115, 3,6-Diamino-5-fluoro-N-(4-(piperazin-1-yl)phenethyl)thieno[2,3-b]pyridine-2-carboxamide], for which the IC50 against USP25 is 200 to 2000 nM; against USP28, less than 200 nM.
